The assay deals with CD8F1 mice, subcutaneous mammary adenocarcinoma, T/C%. The assay is described as follows: NCI In Vivo Anticancer Drug Screen. Data for tumor model Mammary Adenocarcinoma CD8F1 (subcutaneous) in CD8F1. Conditions: higher = larger tumour. The essentials:
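Tumor-bearing mice, transplantable model; readout survival or tumor size; value = treated (T) / vehicle control (C).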

The mark [1] stands for this setting: endpoint: median tumor weight (est.), dose: 25.0 mg/kg/injection, schedule: Q07DX005 (ip), vehicle: saline with Tween-80.
The mark [2] stands for this setting: endpoint: median tumor weight (est.), dose: 50.0 mg/kg/injection, schedule: Q07DX005 (ip), vehicle: saline with Tween-80.
[3] abbreviates: endpoint: median tumor weight (est.), dose: 100.0 mg/kg/injection, schedule: Q07DX005 (ip), vehicle: saline with Tween-80.

Molecules are shown by their SMILES. Several values for one entry are separate records, joined by “and”; a condition that tells them apart may be missing. Equal entries are not always repeated. Inconclusive results are not listed.

As for `CCCCCC(=O)O[C@]1(C(C)=O)CC[C@H]2[C@@H]3CCC4=CC(=O)CC[C@]4(C)[C@H]3CC[C@@]21C`, the T/C was 95 % of control (endpoint: median tumor weight (est.), dose: 12.5 mg/kg/injection, schedule: Q07DX005 (ip), vehicle: Klucel (hydroxypropylcellulose) (HPC)); 90 % of control (endpoint: median tumor weight (est.), dose: 25.0 mg/kg/injection, schedule: Q07DX005 (ip), vehicle: Klucel (hydroxypropylcellulose) (HPC)); 101 % of control (endpoint: median tumor weight (est.), dose: 50.0 mg/kg/injection, schedule: Q07DX005 (ip), vehicle: Klucel (hydroxypropylcellulose) (HPC)); 92 % of control (endpoint: median tumor weight (est.), dose: 100.0 mg/kg/injection, schedule: Q07DX005 (ip), vehicle: Klucel (hydroxypropylcellulose) (HPC)); 49 % of control (endpoint: median tumor weight (est.), dose: 200.0 mg/kg/injection, schedule: Q07DX005 (ip), vehicle: Klucel (hydroxypropylcellulose) (HPC)); 77 % of control (endpoint: median tumor weight (est.), dose: 400.0 mg/kg/injection, schedule: Q07DX005 (ip), vehicle: Klucel (hydroxypropylcellulose) (HPC)).

In the case of `S=C=NCCc1ccccc1`, the T/C by setting is: under setting [1], 120 % of control; under setting [2], 111 % of control; under setting [3], 53 % of control.

In the case of `COc1cccc2c1C(=O)c1c(O)c3c(c(O)c1C2=O)C[C@@](O)(C(=O)CO)C[C@@H]3OC1CC(N)C(O)C(C)O1` (some centres undefined), the T/C (endpoint: mean tumor weight, dose: 0.25 mg/kg/injection, schedule: Q01DX009 (ip), vehicle: saline) is 38 % of control; the T/C (endpoint: mean tumor weight, dose: 0.5 mg/kg/injection, schedule: Q01DX009 (ip), vehicle: saline) is 17 % of control; the T/C (endpoint: mean tumor weight, dose: 0.5 mg/kg/injection, schedule: Q07DX005 (ip), vehicle: saline) is 85 % of control; the T/C (endpoint: mean tumor weight, dose: 0.5 mg/kg/injection, schedule: Q07DX006 (ip), vehicle: saline) was 45 % of control and 55 % of control and 66 % of control; the T/C (endpoint: mean tumor weight, dose: 0.75 mg/kg/injection, schedule: Q07DX006 (ip), vehicle: saline) was 46 % of control; the T/C (endpoint: mean tumor weight, dose: 1.0 mg/kg/injection, schedule: Q01DX009 (ip), vehicle: saline) is 2 % of control. The T/C is 89 % of control (endpoint: mean tumor weight, dose: 1.0 mg/kg/injection, schedule: Q07DX005 (ip), vehicle: saline); 42 % of control (endpoint: mean tumor weight, dose: 1.5 mg/kg/injection, schedule: Q07DX006 (ip), vehicle: saline); 40 % of control (endpoint: mean tumor weight, dose: 2.0 mg/kg/injection, schedule: Q07DX005 (ip), vehicle: saline); 6 % of control (endpoint: mean tumor weight, dose: 2.5 mg/kg/injection, schedule: Q07DX006 (ip), vehicle: saline); 3 % of control (endpoint: mean tumor weight, dose: 3.0 mg/kg/injection, schedule: Q07DX006 (ip), vehicle: saline); 1 % of control (endpoint: mean tumor weight, dose: 4.0 mg/kg/injection, schedule: Q07DX006 (ip), vehicle: saline). In addition, the T/C reads like this: (endpoint: median tumor weight (est.), dose: 0.25 mg/kg/injection, schedule: Q07DX005 (ip), vehicle: saline) 208 % of control and 84 % of control; (endpoint: median tumor weight (est.), dose: 0.37 mg/kg/injection, schedule: Q07DX005 (ip), vehicle: water) 84 % of control; (endpoint: median tumor weight (est.), dose: 0.75 mg/kg/injection, schedule: Q07DX005 (ip), vehicle: saline) 62 % of control; (endpoint: median tumor weight (est.), dose: 0.75 mg/kg/injection, schedule: Q07DX005 (ip), vehicle: water) 47 % of control; (endpoint: median tumor weight (est.), dose: 1.25 mg/kg/injection, schedule: Q07DX005 (ip), vehicle: saline) 40 % of control; (endpoint: median tumor weight (est.), dose: 1.5 mg/kg/injection, schedule: Q07DX005 (ip), vehicle: saline) 85 % of control. In addition, the T/C reads like this: (endpoint: median tumor weight (est.), dose: 1.5 mg/kg/injection, schedule: Q07DX005 (ip), vehicle: water) 81 % of control; (endpoint: median tumor weight (est.), dose: 1.8 mg/kg/injection, schedule: Q07DX005 (ip), vehicle: saline) 77 % of control; (endpoint: median tumor weight (est.), dose: 2.5 mg/kg/injection, schedule: Q07DX005 (ip), vehicle: saline) 14 % of control; (endpoint: median tumor weight (est.), dose: 2.7 mg/kg/injection, schedule: Q07DX005 (ip), vehicle: saline) 51 % of control; (endpoint: median tumor weight (est.), dose: 3.0 mg/kg/injection, schedule: Q07DX005 (ip), vehicle: saline) 29 % of control; (endpoint: median tumor weight (est.), dose: 4.4 mg/kg/injection, schedule: Q01DX001 (ip), vehicle: saline) 37 % of control. In addition, the T/C is 11 % of control (endpoint: median tumor weight (est.), dose: 4.4 mg/kg/injection, schedule: Q07DX004 (ip), vehicle: saline); 30 % of control (endpoint: median tumor weight (est.), dose: 6.0 mg/kg/injection, schedule: Q07DX005 (ip), vehicle: saline); 28 % of control (endpoint: median tumor weight (est.), dose: 6.7 mg/kg/injection, schedule: Q01DX001 (ip), vehicle: saline); 5 % of control (endpoint: median tumor weight (est.), dose: 6.7 mg/kg/injection, schedule: Q07DX004 (ip), vehicle: saline); 1 % of control (endpoint: median tumor weight (est.), dose: 8.0 mg/kg/injection, schedule: Q07DX005 (ip), vehicle: water); 15 % of control (endpoint: median tumor weight (est.), dose: 10.0 mg/kg/injection, schedule: Q01DX001 (ip), vehicle: saline). For the same molecule, the T/C (endpoint: median tumor weight (est.), dose: 15.0 mg/kg/injection, schedule: Q01DX001 (ip), vehicle: saline) is 6 % of control; the T/C (endpoint: median tumor weight change, dose: 1.25 mg/kg/injection, schedule: Q01DX001 (ip), vehicle: water) was 115 % of control; the T/C (endpoint: median tumor weight change, dose: 2.5 mg/kg/injection, schedule: Q01DX001 (ip), vehicle: water) was 81 % of control; the T/C (endpoint: median tumor weight change, dose: 3.75 mg/kg/injection, schedule: Q01DX001 (ip), vehicle: saline) is 96 % of control; the T/C (endpoint: median tumor weight change, dose: 4.4 mg/kg/injection, schedule: Q01DX001 (ip), vehicle: water) is 27 % of control; the T/C (endpoint: median tumor weight change, dose: 5.0 mg/kg/injection, schedule: Q01DX001 (ip), vehicle: water) was 18 % of control. For the same molecule, the T/C by setting is: (endpoint: median tumor weight change, dose: 6.7 mg/kg/injection, schedule: Q01DX001 (ip), vehicle: water) -5 % of control; (endpoint: median tumor weight change, dose: 7.5 mg/kg/injection, schedule: Q01DX001 (ip), vehicle: saline) 82 % of control; (endpoint: median tumor weight change, dose: 15.0 mg/kg/injection, schedule: Q01DX001 (ip), vehicle: water) -49 % of control.

For `c1cc(OCC2CO2)ccc1OCC1CO1` (centres undefined), the T/C was 92 % of control (endpoint: median tumor weight change, dose: 125.0 mg/kg/injection, schedule: Q01DX001 (ip), vehicle: Klucel (hydroxypropylcellulose) (HPC)) and 113 % of control (endpoint: median tumor weight change, dose: 250.0 mg/kg/injection, schedule: Q01DX001 (ip), vehicle: Klucel (hydroxypropylcellulose) (HPC)).

On to `O=C1NC(c2ccccc2)N=C2Oc3ccccc3C=C12` (centres undefined), for which the T/C runs as follows: (endpoint: median tumor weight (est.), dose: 3.12 mg/kg/injection, schedule: Q07DX005 (ip), vehicle: saline with Tween-80) 116 % of control; (endpoint: median tumor weight (est.), dose: 6.25 mg/kg/injection, schedule: Q07DX005 (ip), vehicle: saline with Tween-80) 50 % of control; (endpoint: median tumor weight (est.), dose: 12.5 mg/kg/injection, schedule: Q07DX005 (ip), vehicle: saline with Tween-80) 109 % of control; under setting [1], 78 % of control and 101 % of control; under setting [2], 95 % of control and 115 % of control; under setting [3], 63 % of control and 85 % of control.

As to `O=C1N(CC2CO2)CCN1CC1CO1` (centres undefined), the T/C (endpoint: median tumor weight change, dose: 125.0 mg/kg/injection, schedule: Q01DX001 (ip), vehicle: suspension in saline) was 30 % of control.

`Oc1cc2c3c(c1)c1cc4c(cc1c[n+]3CC2)OCO4`: the T/C (endpoint: median tumor weight (est.), dose: 6.25 mg/kg/injection, schedule: Q07DX005 (ip), vehicle: water) was 81 % of control; the T/C (endpoint: median tumor weight (est.), dose: 12.5 mg/kg/injection, schedule: Q07DX005 (ip), vehicle: water) was 83 % of control; the T/C (endpoint: median tumor weight (est.), dose: 25.0 mg/kg/injection, schedule: Q07DX005 (ip), vehicle: water) was 85 % of control; the T/C (endpoint: median tumor weight (est.), dose: 50.0 mg/kg/injection, schedule: Q07DX005 (ip), vehicle: water) is 94 % of control; the T/C (endpoint: median tumor weight (est.), dose: 100.0 mg/kg/injection, schedule: Q07DX005 (ip), vehicle: water) was 78 % of control.

Consider `CC[C@@]1(O)C[C@H](OC2CC(N(C)C)C(OC3CC(O)C(O[C@@H]4O[C@@H](C)C(=O)C=C4N)C(C)O3)C(C)O2)c2c(cc3c(c2O)C(=O)c2c(O)ccc(O)c2C3=O)[C@H]1C(=O)OC` (some centres undefined), for which the T/C is 180 % of control (endpoint: median tumor weight (est.), dose: 0.09 mg/kg/injection, schedule: Q07DX005 (ip), vehicle: suspension in saline); 168 % of control (endpoint: median tumor weight (est.), dose: 0.18 mg/kg/injection, schedule: Q07DX005 (ip), vehicle: suspension in saline); 240 % of control (endpoint: median tumor weight (est.), dose: 0.37 mg/kg/injection, schedule: Q07DX005 (ip), vehicle: suspension in saline); 37 % of control (endpoint: median tumor weight (est.), dose: 0.38 mg/kg/injection, schedule: Q07DX005 (ip), vehicle: suspension in saline); 50 % of control and 69 % of control (endpoint: median tumor weight (est.), dose: 3.0 mg/kg/injection, schedule: Q07DX005 (ip), vehicle: suspension in saline); 106 % of control (endpoint: median tumor weight (est.), dose: 1.0 micrograms/kg/injection, schedule: Q07DX005 (ip), vehicle: Klucel (hydroxypropylcellulose) (HPC)). Also, under “endpoint: median tumor weight (est.), dose: 4.0 micrograms/kg/injection, schedule: Q07DX005 (ip), vehicle: Klucel (hydroxypropylcellulose) (HPC)”, the T/C is 123 % of control.
